The text below walks through data of ChEMBL document CHEMBL4433196, “A novel delocalized lipophilic cation-chlorambucil conjugate inhibits P-glycoprotein in HepG2/ADM cells” (Bioorg Med Chem, 2017).

Data set [1] has as its system HepG2/Adm. Description: Downregulation of Pgp in human HepG2/ADM cells at 20 uM incubated for 48 hrs by flow cytometric analysis. The class given is functional, cell-based. For orientation: In flow cytometry, cells or beads pass a laser one at a time.
In data set [2] the test system is HepG2. Description: Cytotoxicity against human HepG2 cells assessed as cell growth inhibition incubated for 72 hrs by MTT assay. Format: functional, cell-based. To be noted: HepG2, 72 h. A general note: Formazan colour is commonly taken as a measure of viable cells.
Data set [3] is described as follows: Drug localization in mitochondria of human HepG2 cells at 20 uM incubated for 2 hrs by mitotracker 633 staining based inverted confocal microscope. The class given is ADME. To be noted: hepg2, 2 h.
Data set [4] concerns HepG2/Adm. Description: Downregulation of MDR1 mRNA in human HepG2/ADM cells at 5 to 20 uM incubated for 24 hrs by real time qPCR analysis. The class given is functional, cell-based.
A short description of data set [5]: Induction of apoptosis in human HepG2/ADM cells assessed as early apoptotic cells at 20 uM incubated for 72 hrs in presence of ADM by Annexin V-FITC/SYTOX Red staining based flow cytometric analysis (reference value: 8.58%). The class given is functional.
Data set [6] can be described thus: Induction of apoptosis in human HepG2/ADM cells assessed as early apoptotic cells at 20 uM incubated for 72 hrs by Annexin V-FITC/SYTOX Red staining based flow cytometric analysis (reference value: 5.52%). The class given is functional.
Data set [7] can be described thus: Drug localization in cellular membrane of human HepG2/ADM cells at 20 uM incubated for 2 hrs by mitotracker 633 staining based inverted confocal microscope. The class given is ADME, cell membranes.
The nature of data set [8]: Induction of apoptosis in human HepG2/ADM cells assessed as late apoptotic cells at 20 uM incubated for 72 hrs by Annexin V-FITC/SYTOX Red staining based flow cytometric analysis (Rvb =0.04%). The class given is functional.
Data set [9] in a line: Drug localization in mitochondria of human HepG2/ADM cells at 20 uM incubated for 2 hrs by mitotracker 633 staining based inverted confocal microscope. The class given is ADME.
A short description of data set [10]: Induction of apoptosis in human HepG2/ADM cells assessed as apoptotic cells at 20 uM incubated for 72 hrs in presence of ADM by Annexin V-FITC/SYTOX Red staining based flow cytometric analysis (reference value: 2.60%). Format: functional.
A short description of data set [11]: Drug accumulation in human HepG2 cells at 10 uM incubated for 3 hrs by flow cytometric analysis. The class given is ADME, cell-based. Particulars: hepg2, 3 h.
Data set [12] concerns L02. The data set can be described thus: Cytotoxicity against human L02 cells assessed as cell growth inhibition incubated for 72 hrs by MTT assay. Format: cell-based. To be noted: L02, 72 h.
Data set [13] has as its system HepG2/Adm. The data set can be described thus: Downregulation of Pgp in human HepG2/ADM cells at 5 to 20 uM incubated for 48 hrs by Western blot analysis. Format: functional, cell-based. (In western blotting, separated proteins are transferred to a membrane and probed.)
Data set [14] has as its target T1, ATP-dependent translocase ABCB1 (Homo sapiens, UniProt P08183). The data set can be described thus: Inhibition of Pgp in human HepG2/ADM cells assessed as increase in intracellular ADM level at 20 uM incubated for 2 hrs by mitotracker 633 staining based inverted confocal microscopic analysis. The class given is cell-based.
Data set [15] addresses T1, ATP-dependent translocase ABCB1. Description: Inhibition of Pgp in human HepG2/ADM cells assessed as increase in intracellular ADM level at 20 uM incubated for 12 hrs by flow cytometric analysis. Format: cell-based.
Data set [16] is described as follows: Induction of apoptosis in human HepG2/ADM cells assessed as necrotic cells at 20 uM incubated for 72 hrs in presence of ADM by Annexin V-FITC/SYTOX Red staining based flow cytometric analysis (Rvb =0.1%). Format: functional.
A short description of data set [17]: Drug accumulation in human L02 cells at 10 uM incubated for 3 hrs by flow cytometric analysis. Format: ADME, cell-based. Particulars: l02, 3 h.
Data set [18] is described as follows: Induction of apoptosis in human HepG2/ADM cells assessed as viable cells at 20 uM incubated for 72 hrs in presence of ADM by Annexin V-FITC/SYTOX Red staining based flow cytometric analysis (reference value: 88.7%). The class given is functional. To be noted: read-out: Activity.
A short description of data set [19]: Induction of apoptosis in human HepG2/ADM cells assessed as necrotic cells at 20 uM incubated for 72 hrs by Annexin V-FITC/SYTOX Red staining based flow cytometric analysis (Rvb =0%). The class given is functional.
A short description of data set [20]: Cytotoxicity against human HepG2/ADM cells assessed as cell growth inhibition incubated for 72 hrs by MTT assay. Format: functional, cell-based.
Data set [21] concerns NIH3T3. The data set can be described thus: Cytotoxicity against mouse NIH/3T3 cells assessed as cell growth inhibition incubated for 72 hrs by MTT assay. The class given is cell-based. To be noted: NIH3T3, 72 h.
Data set [22] can be described thus: Drug localization in cellular membrane of human HepG2 cells at 20 uM incubated for 2 hrs by mitotracker 633 staining based inverted confocal microscope. The class given is ADME, cell membranes. To be noted: hepg2, 2 h.
The nature of data set [23]: Induction of apoptosis in human HepG2/ADM cells assessed as viable cell at 20 uM incubated for 72 hrs by Annexin V-FITC/SYTOX Red staining based flow cytometric analysis (reference value: 94.4%). The class given is functional.
For data set [24], the target named is T1, ATP-dependent translocase ABCB1. Description: Inhibition of Pgp in human HepG2/ADM cells at 20 uM incubated for 2 hrs by mitotracker 633 staining based inverted confocal microscopy. The class given is cell-based.
Data set [25] can be described thus: Potency index, ratio of IC50 for human HepG2/ADM cells to IC50 for human HepG2 cells. Format: functional.

Each structure is given as a SMILES string. Calls of active or inactive are those of the source. No cut-off for these calls is given here.

T1 sequence (P08183 whole entry): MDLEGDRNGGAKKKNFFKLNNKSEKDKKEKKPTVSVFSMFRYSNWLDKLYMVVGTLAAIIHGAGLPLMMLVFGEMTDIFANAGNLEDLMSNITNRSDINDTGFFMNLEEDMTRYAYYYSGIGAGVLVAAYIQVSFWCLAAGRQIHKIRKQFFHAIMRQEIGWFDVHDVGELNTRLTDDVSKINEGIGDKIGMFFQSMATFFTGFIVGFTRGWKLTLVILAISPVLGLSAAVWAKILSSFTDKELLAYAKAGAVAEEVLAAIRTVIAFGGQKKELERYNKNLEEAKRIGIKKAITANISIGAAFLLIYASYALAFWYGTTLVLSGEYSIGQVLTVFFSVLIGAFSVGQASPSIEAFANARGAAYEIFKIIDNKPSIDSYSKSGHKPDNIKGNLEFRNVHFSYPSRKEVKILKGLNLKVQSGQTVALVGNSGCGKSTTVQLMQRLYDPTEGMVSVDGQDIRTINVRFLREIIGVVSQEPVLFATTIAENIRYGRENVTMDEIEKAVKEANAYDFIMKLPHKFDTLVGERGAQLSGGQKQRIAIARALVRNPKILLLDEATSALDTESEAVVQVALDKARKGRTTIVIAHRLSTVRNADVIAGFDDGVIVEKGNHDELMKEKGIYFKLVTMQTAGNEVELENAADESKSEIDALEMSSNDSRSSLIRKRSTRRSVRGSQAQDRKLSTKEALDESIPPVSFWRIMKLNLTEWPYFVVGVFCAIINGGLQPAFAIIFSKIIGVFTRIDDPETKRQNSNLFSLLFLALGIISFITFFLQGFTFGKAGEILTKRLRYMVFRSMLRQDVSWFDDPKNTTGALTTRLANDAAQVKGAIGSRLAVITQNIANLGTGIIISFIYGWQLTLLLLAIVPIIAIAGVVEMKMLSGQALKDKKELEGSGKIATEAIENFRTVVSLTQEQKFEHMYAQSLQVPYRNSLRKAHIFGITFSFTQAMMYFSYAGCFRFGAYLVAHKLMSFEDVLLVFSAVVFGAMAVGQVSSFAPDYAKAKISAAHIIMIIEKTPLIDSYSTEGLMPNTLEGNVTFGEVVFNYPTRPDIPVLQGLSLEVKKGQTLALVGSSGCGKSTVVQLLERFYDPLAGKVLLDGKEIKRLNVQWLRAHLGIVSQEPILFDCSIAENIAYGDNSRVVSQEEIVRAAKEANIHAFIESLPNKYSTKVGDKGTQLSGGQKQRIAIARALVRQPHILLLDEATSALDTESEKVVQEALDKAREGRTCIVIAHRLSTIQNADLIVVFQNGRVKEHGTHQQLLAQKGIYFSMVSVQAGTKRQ

For `O=C(CCCc1ccc(N(CCCl)CCCl)cc1)NCCC[n+]1ccc(/C=C/c2c[nH]c3ccc(F)cc23)cc1.[Br-]`, the result in [1], in [4] and in data set [13] was Active. Also, the IC50 (in general, the midpoint of a concentration-inhibition curve) in data set [2] was 60 µM; in data set [12], more than 600 µM; in data set [20] it was 60.5 µM; in data set [21] it was more than 600 µM. Also, the Drug uptake result in data set [3] is listed as “Active”; in [7], “Active”; in data set [9] it was “Active”; in data set [11] it was “Active”; in data set [17], “Not Active”; in data set [22], “Active”. The Activity in data set [5] is 64%; in [6] it was 14.2%; in [8], 0.09%; in data set [10] it was 2.38%; in data set [16], 0%; in [19], 0.01%. Further, the Activity in data set [23] is recorded as 85.7%. For the same compound, the “inhibition (INH)” value in data set [14], in data set [15] and in [24] was “Active” throughout. The viability at 20 µM in data set [18] amounted to 33.5%.

For `COc1cccc2c1C(=O)c1c(O)c3c(c(O)c1C2=O)C[C@@](O)(C(=O)CO)C[C@@H]3O[C@H]1C[C@H](N)[C@H](O)[C@H](C)O1.Cl` [DOXORUBICIN HYDROCHLORIDE], the IC50 was 0.67 µM in [2] and 144 µM in [20]. Further, the “Ratio IC50” value in data set [25] was determined as 215.4.

Consider `Cl.NCCC[n+]1ccc(/C=C/c2c[nH]c3ccc(F)cc23)cc1.[Br-]`, for which the IC50 in data set [2] is 103 µM; in data set [12], more than 600 µM; in data set [20], 102 µM; in [21], more than 600 µM. Also, the Activity came out at 26.2% in data set [5]; 8.72% in [6]; 2.66% in data set [8]; 17% in data set [10]; 1.21% in data set [16]; 0.25% in data set [19]. The Activity in data set [23] was 88.4%. For the same compound, in data set [18], the viability at 20 µM was 55.6%.

On to `O=C(O)CCCc1ccc(N(CCCl)CCCl)cc1` [CHLORAMBUCIL], for which the half-inhibitory concentration (IC50) in data set [2] was 190 µM; in data set [12] it was more than 600 µM; in [20], 297 µM; in data set [21] it was more than 600 µM. Besides, the Activity in data set [5] is given as 12.4%; in [6] it was 9.08%; in [8] it was 0.01%; in [10], 0.05%; in data set [16], 0%; in [19], 0.01%. The Activity in [23] was determined as 90.9%. The viability at 20 µM in data set [18] is 87.5%.
